# From patent US20240199546A1, “INHIBITORS OF SOLUTE CARRIER FAMILY 6A MEMBER 19 (SLC6A19) AND METHODS OF USE THEREOF” (Maze Therapeutics, Inc., priority 2022, published 2024)
# Target: T1, human SLC6A19 and TMEM27 (Homo sapiens, UniProt Q695T7)
# T1 construct: expressed in transfected cells
# T1 sequence (Q695T7 1-634): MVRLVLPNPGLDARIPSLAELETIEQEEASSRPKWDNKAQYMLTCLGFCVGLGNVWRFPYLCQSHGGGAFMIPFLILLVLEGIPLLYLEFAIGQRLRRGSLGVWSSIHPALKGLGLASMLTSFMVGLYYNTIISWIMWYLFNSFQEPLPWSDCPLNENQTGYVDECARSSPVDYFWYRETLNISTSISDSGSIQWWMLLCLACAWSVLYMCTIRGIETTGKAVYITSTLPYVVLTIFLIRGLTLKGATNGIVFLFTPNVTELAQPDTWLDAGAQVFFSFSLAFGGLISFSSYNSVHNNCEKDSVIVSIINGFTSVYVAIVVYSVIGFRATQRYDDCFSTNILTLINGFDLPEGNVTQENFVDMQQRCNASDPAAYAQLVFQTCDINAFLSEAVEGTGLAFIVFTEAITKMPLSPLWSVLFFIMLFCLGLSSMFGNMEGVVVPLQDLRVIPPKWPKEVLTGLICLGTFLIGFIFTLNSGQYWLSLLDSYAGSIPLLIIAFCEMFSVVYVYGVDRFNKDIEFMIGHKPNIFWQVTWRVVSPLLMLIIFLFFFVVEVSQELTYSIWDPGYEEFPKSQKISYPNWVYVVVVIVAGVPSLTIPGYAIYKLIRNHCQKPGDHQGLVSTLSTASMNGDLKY
# T1 sequence (Q9HBJ8 15-222 partner): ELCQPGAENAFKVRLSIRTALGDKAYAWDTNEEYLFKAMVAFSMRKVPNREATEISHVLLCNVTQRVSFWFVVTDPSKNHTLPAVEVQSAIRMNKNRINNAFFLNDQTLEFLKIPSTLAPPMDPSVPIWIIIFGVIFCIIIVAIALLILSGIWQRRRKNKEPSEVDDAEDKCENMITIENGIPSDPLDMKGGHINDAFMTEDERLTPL
# Test: Radiolabelled (3H) leucine uptake in CHO cells with doxycycline-inducible expression of human SLC6A19 and TMEM27 (Example B-1)
# Assay type: cell-based
# Conditions: CHO cells with doxycycline-inducible expression of human SLC6A19 and TMEM27, read-out: SLC6A19_Radioligand Uptake Assay IC50
# Protocol: The flasks were then incubated (humidified, 37° C. with 5% CO2) for 2 minutes. After incubation, 10 mL of pre-warmed cell culture media was added to each flask. The cell suspension was collected and centrifuged for 5 minutes at 200×g. The supernatant was aspirated and the pellet was resuspended in 5 mL pre-warmed cell culture media. The resuspended cells were counted using the Countess Cell Counting Chamber (Invitrogen) and the cell concentration of the suspension was readjusted to 1 million live cells/mL using pre-warmed cell culture media. […] Assay plates were then incubated (humidified, 37° C. with 5% CO2) for 18 hours. After incubation, the media was aspirated and the wells were washed 4 times with pre-warmed HBSS (Sigma-Aldrich, H8264-1L) using an Apricot S-Pipette S2 (Apricot Designs), such that 5 uL/well HBSS was remaining at the end of each wash. […] At this step, the final in-well DMSO concentration in the assay plate is 0.5%. All compounds were plated in a duplicate 8-point dilution series that consisted of 3-fold dilutions. The plates were incubated with compound (humidified, 37° C. with 5% CO2) for 1 hour. […] The plates were then incubated (humidified, 37° C. with 5% CO2) on a plate shaker at 200 rpm for 2 hours. After incubation, the plates were removed from the shaker and kept at room temperature for 15 minutes. Liquid scintillation analysis was performed using the MicroBeta2 Microplate Counter (Perkin Elmer). Activity (%) was derived by normalizing the average of positive control compound treated wells to 0% and the average of DMSO (negative control) wells to 100%. Collaborative Drug Discovery software was used for graphing data.
row,IC50 [nM],SMILES
1,178,"C[C@@H]1CCCN1C(=O)NCc1cc2cc(F)c(OCc3ccon3)cc2[nH]1 [Compound 383, (R)-N-((5-fluoro-6-(isoxazol-3-ylmethoxy)-1H-indol-2-yl)methyl)-2-methylpyrrolidine-1-carboxamide]"
2,> 7300,"CC1(C(=O)NCc2cc3cc(C4(F)CC4)c(OCc4ccon4)cc3[nH]2)CC1 [Compound 655, N-((5-(1-fluorocyclopropyl)-6-(isoxazol-3-ylmethoxy)-1H-indol-2-yl)methyl)-1-methylcyclopropane-1-carboxamide]"
3,82.2,"Cc1cc(COc2cc3[nH]c(CNC(=O)C(F)F)cc3cc2Cl)on1 [Compound 563, N-((5-chloro-6-((3-methylisoxazol-5-yl)methoxy)-1H-indol-2-yl)methyl)-2,2-difluoroacetamide]"
4,350,"Cc1cc(COc2cc3[nH]c(CNC(=O)C4(C#N)COC4)cc3cc2Cl)on1 [Compound 275, N-((5-chloro-6-((3-methylisoxazol-5-yl)methoxy)-1H-indol-2-yl)methyl)-3-cyanooxetane-3-carboxamide]"
5,976,"Cc1cc(COc2cc3[nH]c(CNC(=O)C45CCC(CC4)O5)cc3cc2Cl)on1 [Compound 296, N-((5-chloro-6-((3-methylisoxazol-5-yl)methoxy)-1H-indol-2-yl)methyl)-7-oxabicyclo[2.2.1]heptane-1-carboxamide]"
6,3260,"Cc1cc(COc2cc3[nH]c(CNC(=O)CC4(C)COC4)cc3cc2Cl)on1 [Compound 288, N-((5-chloro-6-((3-methylisoxazol-5-yl)methoxy)-1H-indol-2-yl)methyl)-2-(3-methyloxetan-3-yl)acetamide]"
7,842,"CC1(C(=O)NCc2cc3cc(F)c(CNc4ccon4)cc3[nH]2)CC1 [Compound 611, N-((5-fluoro-6-((isoxazol-3-ylamino)methyl)-1H-indol-2-yl)methyl)-1-methylcyclopropane-1-carboxamide]"
8,114,"CC1(C(=O)NCc2cc3cc(Cl)c(OCCc4ccon4)cc3[nH]2)CC1 [Compound 103, N-((5-chloro-6-(2-(isoxazol-3-yl)ethoxy)-1H-indol-2-yl)methyl)-1-methylcyclopropane-1-carboxamide]"
9,194,"Cc1cc(COc2cc3[nH]c(CNC(=O)C4(O)CC4)cc3cc2Cl)on1 [Compound 251, N-((5-chloro-6-((3-methylisoxazol-5-yl)methoxy)-1H-indol-2-yl)methyl)-1-hydroxycyclopropane-1-carboxamide]"
10,> 9230,"CC1(C(=O)NCc2cc3cc(Cl)c(CCn4cnnn4)cc3[nH]2)CC1 [Compound 585, N-((6-(2-(1H-tetrazol-1-yl)ethyl)-5-chloro-1H-indol-2-yl)methyl)-1-methylcyclopropane-1-carboxamide]"
11,4360,"CC1(C(=O)NCc2cc3cc(Cl)c(OCc4cccc(C(F)(F)F)n4)cc3[nH]2)CC1 [Compound 101, N-((5-chloro-6-((6-(trifluoromethyl)pyridin-2-yl)methoxy)-1H-indol-2-yl)methyl)-1-methylcyclopropane-1-carboxamide]"
12,209,"Cc1cc(COc2cc3[nH]c(CNC(=O)C4(F)CCOC4)cc3cc2Cl)on1 (stereo not drawn) [Compound 305, N-((5-chloro-6-((3-methylisoxazol-5-yl)methoxy)-1H-indol-2-yl)methyl)-3-fluorotetrahydrofuran-3-carboxamide]"
13,583,"CC1(C(=O)NCc2cc3cc(CC#N)c(OCc4ccon4)cc3[nH]2)CC1 [Compound 644, N-((5-(cyanomethyl)-6-(isoxazol-3-ylmethoxy)-1H-indol-2-yl)methyl)-1-methylcyclopropane-1-carboxamide]"
14,123,"Cc1cc(COc2cc3[nH]c(CNC(=O)C(F)(F)F)cc3cc2Cl)on1 [Compound 662, N-((5-chloro-6-((3-methylisoxazol-5-yl)methoxy)-1H-indol-2-yl)methyl)-2,2,2-trifluoroacetamide]"
15,340,"O=C(NCc1cc2cc(C3CC3)c(OCc3cscn3)cc2[nH]1)N1CCC1 [Compound 651, N-((5-cyclopropyl-6-(thiazol-4-ylmethoxy)-1H-indol-2-yl)methyl)azetidine-1-carboxamide]"
16,168,"O=C(NCc1cc2cc(Cl)c(OCc3cscn3)cc2[nH]1)[C@H]1CCOC1 [Compound 308, (S)-N-((5-chloro-6-(thiazol-4-ylmethoxy)-1H-indol-2-yl)methyl)tetrahydrofuran-3-carboxamide]"
17,1360,"O=C(NCc1cc2cc(F)c(OCc3cscn3)cc2[nH]1)C1(CO)CC1 [Compound 255, N-((5-fluoro-6-(thiazol-4-ylmethoxy)-1H-indol-2-yl)methyl)-1-(hydroxymethyl)cyclopropane-1-carboxamide]"
18,> 8380,"CC1(C(=O)NCc2cc3cc(Cl)c(OCc4ccc5cc[nH]c5c4)cc3[nH]2)CC1 [Compound 350, N-((6-((1H-indol-6-yl)methoxy)-5-chloro-1H-indol-2-yl)methyl)-1-methylcyclopropane-1-carboxamide]"
19,> 7970,"Cc1cc(COc2cc3[nH]c(CNC(=O)Cn4cccn4)cc3cc2Cl)on1 [Compound 521, N-((5-chloro-6-((3-methylisoxazol-5-yl)methoxy)-1H-indol-2-yl)methyl)-2-(1H-pyrazol-1-yl)acetamide]"
20,196,"O=C(NCc1cc2cc(Cl)c(OCc3cscn3)cc2[nH]1)C1(C(F)F)CC1 [Compound 559, N-((5-chloro-6-(thiazol-4-ylmethoxy)-1H-indol-2-yl)methyl)-1-(difluoromethyl)cyclopropane-1-carboxamide]"
21,293,"CC1(C(=O)NCc2cc3cc(OC(F)(F)F)c(OCc4ccon4)cc3[nH]2)CC1 [Compound 508, N-((6-(isoxazol-3-ylmethoxy)-5-(trifluoromethoxy)-1H-indol-2-yl)methyl)-1-methylcyclopropane-1-carboxamide]"
22,2240,"Cc1ccnc(COc2cc3[nH]c(CNC(=O)C4(C)CC4)cc3cc2Cl)c1 [Compound 22, N-((5-chloro-6-((4-methylpyridin-2-yl)methoxy)-1H-indol-2-yl)methyl)-1-methylcyclopropane-1-carboxamide]"
23,532,"CC(C)OC(=O)NCc1cc2cc(Cl)c(OCc3cscn3)cc2[nH]1 [Compound 623, isopropyl ((5-chloro-6-(thiazol-4-ylmethoxy)-1H-indol-2-yl)methyl)carbamate]"
24,141,"Cc1cc(COc2cc3[nH]c(CNC(=O)NCCF)cc3cc2Cl)on1 [Compound 371, 1-((5-chloro-6-((3-methylisoxazol-5-yl)methoxy)-1H-indol-2-yl)methyl)-3-(2-fluoroethyl)urea]"
25,264,"Cc1cc(COc2cc3[nH]c(CNC(=O)NC(C)C)cc3cc2Cl)on1 [Compound 638, 1-((5-chloro-6-((3-methylisoxazol-5-yl)methoxy)-1H-indol-2-yl)methyl)-3-isopropylurea]"
26,163,"O=C(NCc1cc2cc(Cl)c(CCc3cscn3)cc2[nH]1)N1CCC1 [Compound 599, N-((5-chloro-6-(2-(thiazol-4-yl)ethyl)-1H-indol-2-yl)methyl)azetidine-1-carboxamide]"
27,119,"O=C(NCc1cc2cc(Cl)c(OCc3cscn3)cc2[nH]1)[C@H]1C[C@@H]1F [Compound 544, (1R,2S)-N-((5-chloro-6-(thiazol-4-ylmethoxy)-1H-indol-2-yl)methyl)-2-fluorocyclopropane-1-carboxamide]"
